Reference: patent publication US20250101039A1, “RIFAMYCIN DERIVATIVES FOR THE TREATMENT OF DISEASES” (priority 2022, published 2025)
In brackets after ≈: the same amount, converted by molar mass. Read-outs that look alike come from different tables or passages of the source.

How the values were obtained:
[1] = system: Enterococcus faecium (strain NCTC 12204); assay: MIC by broth microdilution, E. faecium; format: cell-based; conditions: for MIC: Enterococcus faecium
S. aureus = assay: MIC by broth microdilution, S. aureus; format: cell-based, Staphylococcus aureus; conditions: cation adjusted Mueller Hinton broth, 35° C. 20 hours
A. baumannii RpoB H535C = assay: microbe, parasite or virus in culture; format: cell-based, Acinetobacter baumannii; conditions: for MIC: Acinetobacter baumannii, RPOBH535C, 20 h
[2] = system: Enterococcus faecalis (strain ATCC 51575); assay: MIC by broth microdilution, E. faecalis; format: cell-based; conditions: for MIC: Enterococcus faecalis
[3] = system: A. baumannii RpoB H535Q/S521T; assay: microbe, parasite or virus in culture; format: cell-based, Acinetobacter baumannii; conditions: Acinetobacter baumannii, RPOBH535Q/S521T
A. baumannii RpoB H535L = assay: microbe, parasite or virus in culture; format: cell-based, Acinetobacter baumannii; conditions: for MIC: Acinetobacter baumannii, RPOBH535L, 20 h
[4] = system: Staphylococcus epidermidis (strain ATCC 12228); assay: MIC by broth microdilution, S. epidermidis; format: cell-based; conditions: for MIC: Staphylococcus epidermidis
A. baumannii = assay: MIC by broth microdilution, A. baumannii (WT); format: cell-based, Acinetobacter baumannii; conditions: for MIC: Acinetobacter baumannii
A. baumannii RpoB H535Q = assay: microbe, parasite or virus in culture; format: cell-based, Acinetobacter baumannii; conditions: for MIC: Acinetobacter baumannii, RPOBH535Q, 20 h
[5] = system: H. influenzae (strain ATCC 49247); assay: MIC by broth microdilution, H. influenzae; format: cell-based, Hemophilus influenzae; conditions: for MIC: Haemophilus influenzae
A. baumannii RpoB L542F = assay: microbe, parasite or virus in culture; format: cell-based, Acinetobacter baumannii; conditions: Acinetobacter baumannii, RPOBL542F, 20 h
[6] = system: S. pneumoniae (strain ATCC 49619); assay: MIC by broth microdilution, S. pneumoniae; format: cell-based, Streptococcus pneumoniae; conditions: strain ATCC 49619, cation adjusted Mueller Hinton broth + 5% laked horse blood
[7] = system: S. pyogenes (strain IHMA 1117021); assay: MIC by broth microdilution, S. pyogenes; format: cell-based, Streptococcus pyogenes; conditions: strain IHMA 1117021, cation adjusted Mueller Hinton broth + 5% laked horse blood
[8] = system: M. tuberculosis (H37Rv strain ATCC 27294); format: cell-based, Mycobacterium tuberculosis
[9] = system: M. smegmatis (strain ATCC 700084); assay: MIC, M. smegmatis (BacTiter-Glo); format: cell-based, Mycobacterium smegmatis; conditions: strain ATCC 700084, Middlebrook 7H9 + ADC, 90% growth inhibition, 20 hours
[10] = system: M. abscessus (strain ATCC 19977); assay: MIC by broth microdilution, M. abscessus; format: cell-based, Mycobacterium abscessus; conditions: strain ATCC 19977, Middlebrook 7H9 broth + ADC
[11] = read-out: A. baumannii MIC, RpoB H535C, Table 4, RPMI + FCS
[12] = read-out: MIC, RpoB mutation H535C, Table 5 part 2 c1, 1st H535C isolate, RPMI + 10% FCS
[13] = read-out: MIC, RpoB mutation H535C, Table 5 part 2 c2, 2nd H535C isolate, RPMI + 10% FCS
[14] = read-out: MIC, RpoB mutation H535C, Table 5 part 2 c3, 3rd H535C isolate, RPMI + 10% FCS
[15] = read-out: MIC, RpoB mutation H535C, Table 5 part 2 c4, 4th H535C isolate, RPMI + 10% FCS
[16] = read-out: MIC, RpoB mutation H535Q/S521T, Table 5 part 1 c5, 1st H535Q/S521T isolate, RPMI + 10% FCS
[17] = read-out: MIC, RpoB mutation H535Q/S521T, Table 5 part 1 c6, 2nd H535Q/S521T isolate, RPMI + 10% FCS
[18] = read-out: A. baumannii MIC, RpoB H535L, Table 4, RPMI + FCS
[19] = read-out: MIC, RpoB mutation H535L, Table 5 part 2 c5, 1st H535L isolate, RPMI + 10% FCS
[20] = read-out: MIC, RpoB mutation H535L, Table 5 part 2 c6, 2nd H535L isolate, RPMI + 10% FCS
[21] = read-out: MIC, RpoB mutation H535L, Table 5 part 3 c1, 3rd H535L isolate, RPMI + 10% FCS
[22] = read-out: MIC, RpoB mutation H535L, Table 5 part 3 c6, 4th H535L isolate, RPMI + 10% FCS
[23] = read-out: MIC, RpoB mutation H535L, Table 5 part 3 c7, 5th H535L isolate, RPMI + 10% FCS
[24] = RPMI medium supplemented with 10% FCS, 35° C. 20 hours
[25] = read-out: A. baumannii MIC, RpoB H535Q, Table 4, RPMI + FCS
[26] = read-out: MIC, RpoB mutation H535Q, Table 5 part 1 c2, 1st H535Q isolate, RPMI + 10% FCS
[27] = read-out: MIC, RpoB mutation H535Q, Table 5 part 1 c3, 2nd H535Q isolate, RPMI + 10% FCS
[28] = read-out: MIC, RpoB mutation H535Q, Table 5 part 1 c4, 3rd H535Q isolate, RPMI + 10% FCS
[29] = read-out: MIC, RpoB mutation L542F, Table 5 part 3 c2, 1st L542F isolate, RPMI + 10% FCS
[30] = read-out: MIC, RpoB mutation L542F, Table 5 part 3 c3, 2nd L542F isolate, RPMI + 10% FCS

## CO[C@H]1/C=C/O[C@@]2(C)Oc3c(C)c(O)c4c(c3C2=O)C2=NC3(CC5CCC(C3)N5C)NC2=C(NC(=O)/C(C)=C\C=C\[C@H](C)[C@H](O)[C@@H](C)[C@@H](O)[C@@H](C)[C@H](OC(C)=O)[C@@H]1C)C4=O (single isomer, unassigned) [Compound 13B]
[1]; NCTC12204, read-out: MIC E. faecium
  MIC: 0.125 µg/mL (≈ 0.15 µM)
S. aureus
  MIC S. aureus: 0.016 µg/mL (≈ 0.0193 µM)
A. baumannii RpoB H535C; [11]
  MIC: ≤ 0.002 µg/mL
A. baumannii RpoB H535C; [12]
  MIC: ≤ 0.002 µg/mL
A. baumannii RpoB H535C; [13]
  MIC: 0.002 µg/mL
A. baumannii RpoB H535C; [14]
  MIC: 0.004 µg/mL
A. baumannii RpoB H535C; [15]
  MIC: 0.016 µg/mL
[2]; ATCC51575, read-out: MIC E. faecalis
  MIC: 0.5 µg/mL (≈ 0.602 µM)
[3]; [16]
  MIC: 0.5 µg/mL
[3]; [17]
  MIC: 1 µg/mL
A. baumannii RpoB H535L; [18]
  MIC: 0.03 µg/mL
A. baumannii RpoB H535L; [19]
  MIC: 0.004 µg/mL
A. baumannii RpoB H535L; [20]
  MIC: ≤ 0.002 µg/mL
A. baumannii RpoB H535L; [21]
  MIC: 0.25 µg/mL
A. baumannii RpoB H535L; [22]
  MIC: 0.03 µg/mL
A. baumannii RpoB H535L; [23]
  MIC: 0.03 µg/mL
[4]; ATCC12228, read-out: MIC S. epidermidis
  MIC: < 0.002 µg/mL
A. baumannii; 20 h, read-out: A. baumannii MIC, WT, Table 4, RPMI + FCS
  MIC: ≤ 0.002 µg/mL
A. baumannii; [24]
  MIC A. baumannii: < 0.002 µg/mL
A. baumannii RpoB H535Q; [25]
  MIC: ≤ 0.002 µg/mL
A. baumannii RpoB H535Q; [26]
  MIC: ≤ 0.002 µg/mL
A. baumannii RpoB H535Q; [27]
  MIC: 4 µg/mL
A. baumannii RpoB H535Q; [28]
  MIC: 2 µg/mL
[5]; ATCC49247, read-out: MIC H. influenzae
  MIC: 0.125 µg/mL (≈ 0.15 µM)
A. baumannii RpoB L542F; [29]
  MIC: 0.002 µg/mL
A. baumannii RpoB L542F; [30]
  MIC: 0.125 µg/mL

## CO[C@H]1/C=C/O[C@@]2(C)Oc3c(C)c(O)c4c(c3C2=O)C2=NC3(CCN(CC(C)C)CC3)NC2=C(NC(=O)/C(C)=C\C=C\[C@H](C)[C@H](O)[C@@H](C)[C@@H](O)[C@@H](C)[C@H](OC(C)=O)[C@@H]1C)C4=O [Rifabutin, reference compound]
[1]; NCTC12204, strain NCTC 12204, cation adjusted Mueller Hinton broth, read-out: MIC E. faecium
  MIC: 0.125 µg/mL (≈ 0.148 µM)
S. aureus; Staphylococcus aureus, read-out: MIC S. aureus
  MIC: 0.016 µg/mL (≈ 0.0189 µM)
A. baumannii RpoB H535C; [11]
  MIC: 0.03 µg/mL
A. baumannii RpoB H535C; [12]
  MIC: 0.06 µg/mL
A. baumannii RpoB H535C; [13]
  MIC: 0.016 µg/mL
A. baumannii RpoB H535C; [14]
  MIC: 0.25 µg/mL
A. baumannii RpoB H535C; [15]
  MIC: > 32 µg/mL
[2]; ATCC51575, strain ATCC 51575, cation adjusted Mueller Hinton broth, read-out: MIC E. faecalis
  MIC: 4 µg/mL (≈ 4.72 µM)
[3]; [16]
  MIC: 32 µg/mL
[3]; [17]
  MIC: 16 µg/mL
A. baumannii RpoB H535L; [18]
  MIC: > 32 µg/mL
A. baumannii RpoB H535L; [19]
  MIC: 0.06 µg/mL
A. baumannii RpoB H535L; [20]
  MIC: 0.008 µg/mL
A. baumannii RpoB H535L; [21]
  MIC: > 32 µg/mL
A. baumannii RpoB H535L; [22]
  MIC: > 32 µg/mL
A. baumannii RpoB H535L; [23]
  MIC: > 32 µg/mL
[4]; ATCC12228, strain ATCC 12228, cation adjusted Mueller Hinton broth, read-out: MIC S. epidermidis
  MIC: 0.004 µg/mL (≈ 0.00472 µM)
A. baumannii; 20 h, Table 4, RPMI + FCS, read-out: A. baumannii MIC, WT
  MIC: ≤ 0.002 µg/mL
A. baumannii; read-out: MIC A. baumannii, RPMI medium supplemented with 10% FCS, 35° C. 20 hours
  MIC: < 0.002 µg/mL
A. baumannii RpoB H535Q; [25]
  MIC: 0.004 µg/mL
A. baumannii RpoB H535Q; [26]
  MIC: 0.03 µg/mL
A. baumannii RpoB H535Q; [27]
  MIC: > 32 µg/mL
A. baumannii RpoB H535Q; [28]
  MIC: 16 µg/mL
[5]; ATCC49247, strain ATCC 49247, Hemophilus test medium broth, read-out: MIC H. influenzae
  MIC: 0.5 µg/mL (≈ 0.59 µM)
A. baumannii RpoB L542F; [29]
  MIC: 0.004 µg/mL
A. baumannii RpoB L542F; [30]
  MIC: 1 µg/mL

## CO[C@H]1/C=C/O[C@@]2(C)Oc3c(C)c(O)c4c(c3C2=O)C2=NC3(NC2=C(NC(=O)/C(C)=C\C=C\[C@H](C)[C@H](O)[C@@H](C)[C@@H](O)[C@@H](C)[C@H](OC(C)=O)[C@@H]1C)C4=O)C1CN(C)CC3CN(C)C1 (stereo partly shown) [Compound 18]
[1]; strain NCTC 12204, cation adjusted Mueller Hinton broth
  MIC E. faecium: 0.125 µg/mL (≈ 0.145 µM)
S. aureus
  MIC S. aureus: 0.016 µg/mL (≈ 0.0186 µM)
A. baumannii RpoB H535C; Table 4, RPMI + FCS
  A. baumannii MIC, RpoB H535C: 0.25 µg/mL
[6]
  MIC S. pneumoniae: < 0.002 µg/mL
[2]; strain ATCC 51575, cation adjusted Mueller Hinton broth
  MIC E. faecalis: 2 µg/mL (≈ 2.33 µM)
[7]
  MIC S. pyogenes: < 0.002 µg/mL
[8]
  MIC M. tuberculosis: 0.01 µg/mL (≈ 0.0116 µM)
A. baumannii RpoB H535L; Table 4, RPMI + FCS
  A. baumannii MIC, RpoB H535L: 4 µg/mL
[9]
  MIC M. smegmatis: 1.11 µg/mL
[4]; strain ATCC 12228, cation adjusted Mueller Hinton broth
  MIC S. epidermidis: < 0.002 µg/mL
A. baumannii; [24]
  MIC A. baumannii: 0.008 µg/mL (≈ 0.0093 µM)
A. baumannii; Table 4, RPMI + FCS
  A. baumannii MIC, WT: 0.008 µg/mL
A. baumannii RpoB H535Q; Table 4, RPMI + FCS
  A. baumannii MIC, RpoB H535Q: 0.03 µg/mL
[5]; strain ATCC 49247, Hemophilus test medium broth
  MIC H. influenzae: 0.125 µg/mL (≈ 0.145 µM)
[10]
  MIC M. abscessus: 32 µg/mL
